Measurements reported in ChEMBL document CHEMBL3046293, “Fungicidal Activities of -Methoxyphenylacetic Acid Derivatives” (2002).

Legend:
Type in all cases: functional
[1] = tested on: Pseudoperonospora cubensis; assay: Fungicidal activity against Pseudoperonospora cubensis assessed as cucumber downy mildew disease control at 125 ppm foliar application 24 hr after inoculation by curative manner
[2] = tested on: Pseudoperonospora cubensis; assay: Fungicidal activity against Pseudoperonospora cubensis assessed as cucumber downy mildew disease control at 2 ppm foliar application 24 hr before inoculation onto the abaxial(treated) surface of leaf by preventive manner
[3] = tested on: Pseudoperonospora cubensis; assay: Fungicidal activity against Pseudoperonospora cubensis assessed as cucumber downy mildew disease control at 7.8 ppm foliar application 24 hr before inoculation onto the abaxial(treated) surface of leaf by preventive manner
[4] = tested on: Pseudoperonospora cubensis; assay: Fungicidal activity against Pseudoperonospora cubensis assessed as cucumber downy mildew disease control at 31.3 ppm foliar application 24 hr before inoculation onto the abaxial(treated) surface of leaf by preventive manner
[5] = tested on: Pseudoperonospora cubensis; assay: Fungicidal activity against Pseudoperonospora cubensis assessed as cucumber downy mildew disease control at 125 ppm foliar application 24 hr before inoculation onto the abaxial(treated) surface of leaf by preventive manner
[6] = tested on: Pseudoperonospora cubensis; assay: Fungicidal activity against Pseudoperonospora cubensis assessed as cucumber downy mildew disease control at 2 ppm foliar application 24 hr before inoculation onto the adaxial(treated) surface of leaf by preventive manner
[7] = tested on: Pseudoperonospora cubensis; assay: Fungicidal activity against Pseudoperonospora cubensis assessed as cucumber downy mildew disease control at 7.8 ppm foliar application 24 hr before inoculation onto the adaxial(treated) surface of leaf by preventive manner
[8] = tested on: Pseudoperonospora cubensis; assay: Fungicidal activity against Pseudoperonospora cubensis assessed as cucumber downy mildew disease control at 31.3 ppm foliar application 24 hr before inoculation onto the adaxial(treated) surface of leaf by preventive manner
[9] = tested on: Pseudoperonospora cubensis; assay: Fungicidal activity against Pseudoperonospora cubensis assessed as cucumber downy mildew disease control at 125 ppm foliar application 24 hr before inoculation onto the adaxial(treated) surface of leaf by preventive manner
Botrytis cinerea [10] = assay: Fungicidal activity against Botryotinia fuckeliana assessed as cucumber gray mold disease control at 2 ppm foliar application 24 hr after inoculation by curative manner
Botrytis cinerea [11] = assay: Fungicidal activity against Botryotinia fuckeliana assessed as cucumber gray mold disease control at 7.8 ppm foliar application 24 hr after inoculation by curative manner
Botrytis cinerea [12] = assay: Fungicidal activity against Botryotinia fuckeliana assessed as cucumber gray mold disease control at 31.3 ppm foliar application 24 hr after inoculation by curative manner
Botrytis cinerea [13] = assay: Fungicidal activity against Botryotinia fuckeliana assessed as cucumber gray mold disease control at 125 ppm foliar application 24 hr after inoculation by curative manner
Botrytis cinerea [14] = assay: Fungicidal activity against Botryotinia fuckeliana assessed as cucumber gray mold disease control at 2 ppm foliar application 24 hr before inoculation by preventive manner
Botrytis cinerea [15] = assay: Fungicidal activity against Botryotinia fuckeliana assessed as cucumber gray mold disease control at 7.8 ppm foliar application 24 hr before inoculation by preventive manner
[16] = tested on: Pseudoperonospora cubensis; assay: Fungicidal activity against Pseudoperonospora cubensis assessed as cucumber downy mildew disease control at 2 ppm foliar application 24 hr after inoculation by curative manner
[17] = tested on: Pseudoperonospora cubensis; assay: Fungicidal activity against Pseudoperonospora cubensis assessed as cucumber downy mildew disease control at 7.8 ppm foliar application 24 hr after inoculation by curative manner
[18] = tested on: Pseudoperonospora cubensis; assay: Fungicidal activity against Pseudoperonospora cubensis assessed as cucumber downy mildew disease control at 31.3 ppm foliar application 24 hr after inoculation by curative manner
Pyricularia oryzae [19] = assay: Fungicidal activity against Magnaporthe oryzae Cav. race 003 assessed as rice blast disease control at 31.3 ppm treated 24 hr before inoculation by preventive manner
Botrytis cinerea [20] = assay: Fungicidal activity against Botryotinia fuckeliana assessed as cucumber gray mold disease control at 31.3 ppm foliar application 24 hr before inoculation by preventive manner
Botrytis cinerea [21] = assay: Fungicidal activity against Botryotinia fuckeliana assessed as cucumber gray mold disease control at 125 ppm foliar application 24 hr before inoculation by preventive manner
Podosphaera fuliginea [22] = assay: Fungicidal activity against Podosphaera fuliginea assessed as cucumber powdery mildew control at 0.125 ppm foliar application 24 hr after inoculation by curative manner
Podosphaera fuliginea [23] = assay: Fungicidal activity against Podosphaera fuliginea assessed as cucumber powdery mildew control at 0.5 ppm foliar application 24 hr after inoculation by curative manner
Podosphaera fuliginea [24] = assay: Fungicidal activity against Podosphaera fuliginea assessed as cucumber powdery mildew control at 2 ppm foliar application 24 hr after inoculation by curative manner
Blumeria graminis [25] = assay: Fungicidal activity against Blumeria graminis f. sp. tritici assessed as wheat powdery mildew disease control at 2 ppm foliar application for 24 hr after inoculation by curative manner
Blumeria graminis [26] = assay: Fungicidal activity against Blumeria graminis f. sp. tritici assessed as wheat powdery mildew disease control at 7.8 ppm foliar application for 24 hr after inoculation by curative manner
Podosphaera fuliginea [27] = assay: Fungicidal activity against Podosphaera fuliginea assessed as cucumber powdery mildew disease control at 7.8 ppm treated 24 hr before inoculation by preventive manner
Podosphaera fuliginea [28] = assay: Fungicidal activity against Podosphaera fuliginea assessed as cucumber powdery mildew control at 7.8 ppm foliar application 24 hr after inoculation by curative manner
Podosphaera fuliginea [29] = assay: Fungicidal activity against Podosphaera fuliginea assessed as cucumber powdery mildew control at 0.125 ppm foliar application 24 hr before inoculation by preventive manner
Podosphaera fuliginea [30] = assay: Fungicidal activity against Podosphaera fuliginea assessed as cucumber powdery mildew control at 0.5 ppm foliar application 24 hr before inoculation by preventive manner
Podosphaera fuliginea [31] = assay: Fungicidal activity against Podosphaera fuliginea assessed as cucumber powdery mildew control at 2 ppm foliar application 24 hr before inoculation by preventive manner
Podosphaera fuliginea [32] = assay: Fungicidal activity against Podosphaera fuliginea assessed as cucumber powdery mildew control at 7.8 ppm foliar application 24 hr before inoculation by preventive manner
Blumeria graminis [33] = assay: Fungicidal activity against Blumeria graminis f. sp. tritici assessed as wheat powdery mildew disease control at 31.3 ppm foliar application for 24 hr after inoculation by curative manner
Blumeria graminis [34] = assay: Fungicidal activity against Blumeria graminis f. sp. tritici assessed as wheat powdery mildew disease control at 125 ppm foliar application for 24 hr after inoculation by curative manner
Blumeria graminis [35] = assay: Fungicidal activity against Blumeria graminis f. sp. tritici assessed as wheat powdery mildew disease control at 2 ppm foliar application for 24 hr before inoculation by preventive manner
Blumeria graminis [36] = assay: Fungicidal activity against Blumeria graminis f. sp. tritici assessed as wheat powdery mildew disease control at 7.8 ppm foliar application for 24 hr before inoculation by preventive manner
Blumeria graminis [37] = assay: Fungicidal activity against Blumeria graminis f. sp. tritici assessed as wheat powdery mildew disease control at 31.3 ppm foliar application for 24 hr before inoculation by preventive manner
Blumeria graminis [38] = assay: Fungicidal activity against Blumeria graminis f. sp. tritici assessed as wheat powdery mildew disease control at 125 ppm foliar application for 24 hr before inoculation by preventive manner
Thanatephorus cucumeris [39] = assay: Fungicidal activity against Thanatephorus cucumeris assessed as rice sheath blight disease control at 2 ppm foliar application for 24 hr after inoculation by curative manner
Thanatephorus cucumeris [40] = assay: Fungicidal activity against Thanatephorus cucumeris assessed as rice sheath blight disease control at 7.8 ppm foliar application for 24 hr after inoculation by curative manner
Thanatephorus cucumeris [41] = assay: Fungicidal activity against Thanatephorus cucumeris assessed as rice sheath blight disease control at 31.3 ppm foliar application for 24 hr after inoculation by curative manner
Thanatephorus cucumeris [42] = assay: Fungicidal activity against Thanatephorus cucumeris assessed as rice sheath blight disease control at 125 ppm foliar application for 24 hr after inoculation by curative manner
Thanatephorus cucumeris [43] = assay: Fungicidal activity against Thanatephorus cucumeris assessed as rice sheath blight disease control at 2 ppm foliar application for 24 hr before inoculation by preventive manner
Thanatephorus cucumeris [44] = assay: Fungicidal activity against Thanatephorus cucumeris assessed as rice sheath blight disease control at 7.8 ppm foliar application for 24 hr before inoculation by preventive manner
Thanatephorus cucumeris [45] = assay: Fungicidal activity against Thanatephorus cucumeris assessed as rice sheath blight disease control at 31.3 ppm foliar application for 24 hr before inoculation by preventive manner
Thanatephorus cucumeris [46] = assay: Fungicidal activity against Thanatephorus cucumeris assessed as rice sheath blight disease control at 125 ppm foliar application for 24 hr before inoculation by preventive manner
Pyricularia oryzae [47] = assay: Fungicidal activity against Magnaporthe oryzae Cav. race 003 assessed as rice blast disease control at 2 ppm foliar application for 24 hr before inoculation by preventive manner
Pyricularia oryzae [48] = assay: Fungicidal activity against Magnaporthe oryzae Cav. race 003 assessed as rice blast disease control at 7.8 ppm foliar application for 24 hr before inoculation by preventive manner
Pyricularia oryzae [49] = assay: Fungicidal activity against Magnaporthe oryzae Cav. race 003 assessed as rice blast disease control at 31.3 ppm foliar application for 24 hr before inoculation by preventive manner
Pyricularia oryzae [50] = assay: Fungicidal activity against Magnaporthe oryzae Cav. race 003 assessed as rice blast disease control at 125 ppm foliar application for 24 hr before inoculation by preventive manner
Botrytis cinerea [51] = assay: Fungicidal activity against Botryotinia fuckeliana assessed as cucumber gray mold disease control at 7.8 ppm treated 24 hr before inoculation by preventive manner
Blumeria graminis [52] = assay: Fungicidal activity against Blumeria graminis f. sp. tritici assessed as wheat powdery mildew disease control at 0.5 ppm foliar application for 24 hr before inoculation by preventive manner
Blumeria graminis [53] = assay: Fungicidal activity against Blumeria graminis f. sp. tritici assessed as wheat powdery mildew disease control at 0.5 ppm foliar application for 24 hr after inoculation by curative manner
Pyricularia oryzae [54] = assay: Fungicidal activity against Magnaporthe oryzae Cav. race 003 assessed as rice blast disease control at 500 ppm treated 24 hr before inoculation by preventive manner
Botrytis cinerea [55] = assay: Fungicidal activity against Botryotinia fuckeliana assessed as cucumber gray mold disease control at 125 ppm treated 24 hr before inoculation by preventive manner
Podosphaera fuliginea [56] = assay: Fungicidal activity against Podosphaera fuliginea assessed as cucumber powdery mildew disease control at 31.3 ppm treated 24 hr before inoculation by preventive manner

CNC(=O)C(OC)c1cccc(COc2cc(C)ccc2C)c1 (centres undefined)
Activity [1]: 30%
Activity [2]: 50%
Activity [3]: 70%
Activity [4]: 70%
Activity [5]: 70%
Activity [6]: 97%
Activity [7]: 97%
Activity [8]: 97%
Activity [9]: 97%
Activity (Botrytis cinerea [10]): 20%
Activity (Botrytis cinerea [11]): 50%
Activity (Botrytis cinerea [12]): 60%
Activity (Botrytis cinerea [13]): 80%
Activity (Botrytis cinerea [14]): 50%
Activity (Botrytis cinerea [15]): 50%
Activity [16]: 0%
Activity [17]: 0%
Activity [18]: 30%
Activity (Pyricularia oryzae [19]): 90%
Activity (Botrytis cinerea [20]): 80%
Activity (Botrytis cinerea [21]): 80%
Activity (Podosphaera fuliginea [22]): 30%
Activity (Podosphaera fuliginea [23]): 70%
Activity (Podosphaera fuliginea [24]): 100%
Activity (Blumeria graminis [25]): 90%
Activity (Blumeria graminis [26]): 90%
Activity (Podosphaera fuliginea [27]): 90%
Activity (Podosphaera fuliginea [28]): 100%
Activity (Podosphaera fuliginea [29]): 30%
Activity (Podosphaera fuliginea [30]): 70%
Activity (Podosphaera fuliginea [31]): 90%
Activity (Podosphaera fuliginea [32]): 99%
Activity (Blumeria graminis [33]): 97%
Activity (Blumeria graminis [34]): 97%
Activity (Blumeria graminis [35]): 90%
Activity (Blumeria graminis [36]): 90%
Activity (Blumeria graminis [37]): 97%
Activity (Blumeria graminis [38]): 97%
Activity (Thanatephorus cucumeris [39]): 20%
Activity (Thanatephorus cucumeris [40]): 30%
Activity (Thanatephorus cucumeris [41]): 40%
Activity (Thanatephorus cucumeris [42]): 70%
Activity (Thanatephorus cucumeris [43]): 10%
Activity (Thanatephorus cucumeris [44]): 20%
Activity (Thanatephorus cucumeris [45]): 40%
Activity (Thanatephorus cucumeris [46]): 80%
Activity (Pyricularia oryzae [47]): 30%
Activity (Pyricularia oryzae [48]): 70%
Activity (Pyricularia oryzae [49]): 90%
Activity (Pyricularia oryzae [50]): 95%
Activity (Botrytis cinerea [51]): 50%

CO/N=C(/C(=O)OC)c1ccccc1COc1ccccc1C [KRESOXIM-METHYL]
Activity [1]: 30%
Activity [2]: 0%
Activity [3]: 0%
Activity [4]: 0%
Activity [5]: 30%
Activity [6]: 97%
Activity [7]: 97%
Activity [8]: 97%
Activity [9]: 97%
Activity (Botrytis cinerea [10]): 0%
Activity (Botrytis cinerea [11]): 0%
Activity (Botrytis cinerea [12]): 10%
Activity (Botrytis cinerea [13]): 30%
Activity (Botrytis cinerea [14]): 20%
Activity (Botrytis cinerea [15]): 50%
Activity [16]: 0%
Activity [17]: 0%
Activity [18]: 0%
Activity (Botrytis cinerea [20]): 50%
Activity (Botrytis cinerea [21]): 50%
Activity (Podosphaera fuliginea [22]): 50%
Activity (Podosphaera fuliginea [23]): 80%
Activity (Podosphaera fuliginea [24]): 90%
Activity (Blumeria graminis [25]): 50%
Activity (Blumeria graminis [26]): 70%
Activity (Podosphaera fuliginea [28]): 100%
Activity (Podosphaera fuliginea [29]): 0%
Activity (Podosphaera fuliginea [30]): 20%
Activity (Podosphaera fuliginea [31]): 80%
Activity (Podosphaera fuliginea [32]): 97%
Activity (Blumeria graminis [33]): 90%
Activity (Blumeria graminis [34]): 90%
Activity (Blumeria graminis [35]): 30%
Activity (Blumeria graminis [36]): 50%
Activity (Blumeria graminis [37]): 70%
Activity (Blumeria graminis [38]): 90%
Activity (Thanatephorus cucumeris [39]): 0%
Activity (Thanatephorus cucumeris [40]): 0%
Activity (Thanatephorus cucumeris [41]): 30%
Activity (Thanatephorus cucumeris [42]): 50%
Activity (Thanatephorus cucumeris [43]): 30%
Activity (Thanatephorus cucumeris [44]): 30%
Activity (Thanatephorus cucumeris [45]): 30%
Activity (Thanatephorus cucumeris [46]): 50%
Activity (Pyricularia oryzae [47]): 30%
Activity (Pyricularia oryzae [48]): 50%
Activity (Pyricularia oryzae [49]): 70%
Activity (Pyricularia oryzae [50]): 97%

CC(C)(C)C(=O)C(Oc1ccc(Cl)cc1)n1cncn1 (centres undefined) [TRIADIMEFON]
Activity (Blumeria graminis [25]): 90%
Activity (Blumeria graminis [26]): 90%
Activity (Blumeria graminis [52]): 30%
Activity (Blumeria graminis [53]): 50%
Activity (Blumeria graminis [35]): 50%
Activity (Blumeria graminis [36]): 97%
Activity (Blumeria graminis [37]): 97%

CCNC(=O)C(OC)c1cccc(COc2cc(C)ccc2C)c1 (centres undefined)
Activity (Pyricularia oryzae [54]): <90%
Activity (Botrytis cinerea [55]): 50%
Activity (Podosphaera fuliginea [56]): 90%
